# Laboratory results: patent publication US20050222146A1, “N-substituted-n-sulfonylaminocyclopropane compounds and pharmaceutical use thereof” (priority 2003, published 2005)
# Columns and labels:
# [1] = biological target: T1, aggrecanase-1 (Homo sapiens, UniProt O75173); experiment: Aggrecanase-1 inhibitory action, Particle Assay (GAG release from aggrecan-containing polyacrylamide particles); type: biochemical; settings: 37° C. for 15 hr, read-out: Experimental Example 1 IC50 AG1
# T1 sequence (O75173 213-837): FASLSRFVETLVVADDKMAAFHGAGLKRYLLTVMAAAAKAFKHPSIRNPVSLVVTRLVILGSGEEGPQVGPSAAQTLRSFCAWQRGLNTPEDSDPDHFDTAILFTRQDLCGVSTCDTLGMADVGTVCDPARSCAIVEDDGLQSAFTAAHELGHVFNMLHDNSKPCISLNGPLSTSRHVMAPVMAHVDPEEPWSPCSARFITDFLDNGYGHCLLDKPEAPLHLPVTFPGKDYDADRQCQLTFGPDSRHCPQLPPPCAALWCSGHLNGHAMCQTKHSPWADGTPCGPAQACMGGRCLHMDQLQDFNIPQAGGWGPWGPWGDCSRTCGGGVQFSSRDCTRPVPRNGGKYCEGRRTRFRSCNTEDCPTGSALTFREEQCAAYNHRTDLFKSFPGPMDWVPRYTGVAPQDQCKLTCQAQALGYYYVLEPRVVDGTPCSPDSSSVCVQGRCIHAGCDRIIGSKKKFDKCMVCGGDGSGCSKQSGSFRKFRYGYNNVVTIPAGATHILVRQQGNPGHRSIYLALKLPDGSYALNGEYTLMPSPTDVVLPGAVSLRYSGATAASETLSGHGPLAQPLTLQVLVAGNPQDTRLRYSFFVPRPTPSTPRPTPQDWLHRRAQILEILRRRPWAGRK
# Experimental: Aggrecanase-1 Inhibitory Action
# Particle Assay was used for determination of aggrecanase activity.
# (§1) The enzyme and substrate were diluted with Tris-HCl buffer, and test compounds were diluted with dimethyl sulfoxide (DMSO).
# Test compounds and the enzyme were added into 96-well plate, and polyacrylamide particles containing aggrecan were added as a substrate and the mixture was incubated at 37° C. for 15 hr.
# After incubation; the supernatant was transferred to another plate, and mixed with 1,9-dimethylmethylene blue. The absorbance at 595 nm was measured to quantify the amount of glycosaminoglycan (GAG) released in the reaction supernatant. Whale chondroitin sulfate was used as the standard of GAG. The inhibitory activity of the compound in each well (%) was calculated based on the values of enzyme-free well and inhibitor-free well. The inhibitory activity of the compound was represented as IC50 (μM).
# [2] = biological target: T2, MMP-1 (Homo sapiens, UniProt P03956); experiment: MMP-1 inhibitory action, Type I collagen Activity Measurement kit (FITC-labeled collagen type I); type: biochemical; settings: 37° C. for 3 hr, read-out: Experimental Example 2 IC50 MMP1
# T2 sequence (P03956 100-469): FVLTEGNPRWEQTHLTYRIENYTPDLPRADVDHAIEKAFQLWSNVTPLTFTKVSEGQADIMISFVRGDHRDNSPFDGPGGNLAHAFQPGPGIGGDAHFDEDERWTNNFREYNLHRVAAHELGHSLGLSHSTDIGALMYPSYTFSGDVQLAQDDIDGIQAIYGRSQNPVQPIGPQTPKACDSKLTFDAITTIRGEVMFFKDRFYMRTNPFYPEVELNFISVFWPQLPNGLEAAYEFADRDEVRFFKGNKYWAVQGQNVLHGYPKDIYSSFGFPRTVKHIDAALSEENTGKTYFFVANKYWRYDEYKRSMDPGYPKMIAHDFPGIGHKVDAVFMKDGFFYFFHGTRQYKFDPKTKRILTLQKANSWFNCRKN
# Experimental: For MMP-1 Assay, Type I collagen Activity Measurement kit (YAGAI YU-72013) modified to a 96-well plate format was used.
# The principle of the kit is based on the property of collagen that becomes soluble in ethanol after being cleaved by MMP-1.
# as §1
# The enzyme and test compounds were added into 96-well plate, and fluorescein isothiocianate (FITC)-labeled collagen type I was added as a substrate and the mixture was incubated at 37° C. for 3 hr.
# The reaction was terminated by addition of Tris-HCl buffer containing ethanol. After centrifugation, the supernatant containing denatured substrate was transferred to another 96-well plate. The collagenase activity of MMP-1 was determined by measuring FITC fluorescence intensity (excitation wavelength 485 nm, emission wavelength 530 nm) of each well. The inhibitory activity of the compound in each well (%) was calculated based on the values of enzyme-free well and inhibitor-free well. The inhibitory activity of the compound was represented as IC50 (μM).
SMILES,IC50 [1],IC50 [2]
"CC(C)(C)OC(=O)NCCN([C@]1(C(=O)O)C[C@H]1c1ccccc1)S(=O)(=O)c1ccc(-c2ccc(Cl)cc2)cc1 (relative stereo) [Example 1-4, (1R*,2S*)-1-[(2-tert-butoxycarbonylamino-ethyl)-(4′-chloro-biphenyl-4-sulfonyl)-amino]-2-phenyl-cyclopropanecarboxylic acid]",< 1 µM,≥ 10 µM
"O=C(O)[C@@]1(N(Cc2cc(=O)[nH][nH]2)S(=O)(=O)c2ccc(-c3ccc(Cl)cc3)cc2)C[C@H]1c1ccccc1 (relative stereo) [Example 1-5, (1R*,2S*)-1-[(4′-chloro-biphenyl-4-sulfonyl)-(5-oxo-2,5-dihydro-1H-pyrazol-3-ylmethyl)-amino]-2-phenyl-cyclopropanecarboxylic acid]",< 1 µM,≥ 10 µM
"CS(=O)(=O)NCCN([C@]1(C(=O)O)C[C@H]1c1ccccc1)S(=O)(=O)c1ccc(-c2ccc(Cl)cc2)cc1 (relative stereo) [Example 1-7, (1R*,2S*)-1-[(4′-chloro-biphenyl-4-sulfonyl)-(2-methanesulfonylamino-ethyl)-amino]-2-phenyl-cyclopropanecarboxylic acid]",< 1 µM,≥ 10 µM
"CC(C)OC(=O)NS(=O)(=O)NCCN([C@]1(C(=O)O)C[C@H]1c1ccccc1)S(=O)(=O)c1ccc(-c2ccc(Cl)cc2)cc1 (relative stereo) [Example 1-9, (1R*, 2S*)-1-[(4′-chloro-biphenyl-4-sulfonyl)-(2-isopropoxycarbonylaminosulfonylamino-ethyl)-amino]-2-phenyl-cyclopropanecarboxylic acid]",< 1 µM,≥ 10 µM
"O=C(O)c1ccc(CN([C@]2(C(=O)O)C[C@H]2c2ccccc2)S(=O)(=O)c2ccc(-c3ccc(Cl)cc3)cc2)cc1 (relative stereo) [Example 1-10, (1R*,2S*)-4-{[(1-carboxy-2-phenyl-cyclopropyl)-(4′-chloro-biphenyl-4-sulfonyl)-amino]-methyl}-benzoic acid]",< 0.1 µM,≥ 10 µM
"O=C(O)CN([C@]1(C(=O)O)C[C@H]1c1ccc(Cl)cc1)S(=O)(=O)c1ccc(-c2ccc(Cl)cc2)cc1 (relative stereo) [Example 1-11, (1R*,2S*)-1-[carboxymethyl-(4′-chloro-biphenyl-4-sulfonyl)-amino]-2-(4-chloro-phenyl)-cyclopropanecarboxylic acid]",< 1 µM,≥ 10 µM
"O=C(O)CN([C@]1(C(=O)O)C[C@H]1c1cccc(Cl)c1)S(=O)(=O)c1ccc(-c2ccc(Cl)cc2)cc1 (relative stereo) [Example 1-12, (1R*,2S*)-1-[carboxymethyl-(4′-chloro-biphenyl-4-sulfonyl)-amino]-2-(3-chloro-phenyl)-cyclopropanecarboxylic acid]",< 1 µM,≥ 10 µM
"O=C(O)CN([C@]1(C(=O)O)C[C@H]1c1ccccc1Cl)S(=O)(=O)c1ccc(-c2ccc(Cl)cc2)cc1 (relative stereo) [Example 1-13, (1R*,2S*)-1-[carboxymethyl-(4′-chloro-biphenyl-4-sulfonyl)-amino]-2-(2-chloro-phenyl)-cyclopropanecarboxylic acid]",< 1 µM,≥ 10 µM
"O=C(O)[C@@]1(N(Cc2nn[nH]n2)S(=O)(=O)c2ccc(-c3ccc(Cl)cc3)cc2)C[C@H]1c1ccccc1 (relative stereo) [Example 1-15, (1R*,2S*)-1-[(4′-chloro-biphenyl-4-sulfonyl)-(2H-tetrazol-5-ylmethyl)-amino]-2-phenyl-cyclopropanecarboxylic acid]",< 1 µM,≥ 10 µM
"O=C(O)[C@@]1(N(Cc2cccc(O)c2)S(=O)(=O)c2ccc(-c3ccc(Cl)cc3)cc2)C[C@H]1c1ccccc1 (relative stereo) [Example 1-17, (1R*,2S*)-1-[(4′-chloro-biphenyl-4-sulfonyl)-(3-hydroxy-benzyl)-amino]-2-phenyl-cyclopropanecarboxylic acid]",< 1 µM,≥ 10 µM
"Cc1ccc([C@@H]2C[C@@]2(C(=O)O)N(CC(=O)O)S(=O)(=O)c2ccc(-c3ccc(Cl)cc3)cc2)cc1 (relative stereo) [Example 1-18, (1R*,2S*)-1-[carboxymethyl-(4′-chloro-biphenyl-4-sulfonyl)-amino]-2-(4-methyl-phenyl)-cyclopropanecarboxylic acid]",< 1 µM,≥ 10 µM
"Cc1ccccc1[C@@H]1C[C@@]1(C(=O)O)N(CC(=O)O)S(=O)(=O)c1ccc(-c2ccc(Cl)cc2)cc1 (relative stereo) [Example 1-19, (1R*,2S*)-1-[carboxymethyl-(4′-chloro-biphenyl-4-sulfonyl)-amino]-2-(2-methyl-phenyl)-cyclopropanecarboxylic acid]",< 1 µM,≥ 10 µM
"Cc1cccc([C@@H]2C[C@@]2(C(=O)O)N(CC(=O)O)S(=O)(=O)c2ccc(-c3ccc(Cl)cc3)cc2)c1 (relative stereo) [Example 1-20, (1R*,2S*)-1-[carboxymethyl-(4′-chloro-biphenyl-4-sulfonyl)-amino]-2-(3-methyl-phenyl)-cyclopropanecarboxylic acid]",< 1 µM,≥ 10 µM
"COc1ccccc1[C@@H]1C[C@@]1(C(=O)O)N(CC(=O)O)S(=O)(=O)c1ccc(-c2ccc(Cl)cc2)cc1 (relative stereo) [Example 1-22, (1R*,2S*)-1-[carboxymethyl-(4′-chloro-biphenyl-4-sulfonyl)-amino]-2-(2-methoxy-phenyl)-cyclopropanecarboxylic acid]",< 1 µM,≥ 10 µM
"O=C(O)CN([C@]1(C(=O)O)C[C@H]1c1ccc(Cl)c(Cl)c1)S(=O)(=O)c1ccc(-c2ccc(Cl)cc2)cc1 (relative stereo) [Example 1-23, (1R*,2S*)-1-[carboxymethyl-(4′-chloro-biphenyl-4-sulfonyl)-amino]-2-(3,4-dichloro-phenyl)-cyclopropanecarboxylic acid]",< 1 µM,≥ 10 µM
"O=C(O)CN([C@]1(C(=O)O)C[C@H]1c1cc(Cl)ccc1Cl)S(=O)(=O)c1ccc(-c2ccc(Cl)cc2)cc1 (relative stereo) [Example 1-24, (1R*,2S*)-1-[carboxymethyl-(4′-chloro-biphenyl-4-sulfonyl)-amino]-2-(2,5-dichloro-phenyl)-cyclopropanecarboxylic acid]",< 1 µM,≥ 10 µM
"O=C(O)CN([C@]1(C(=O)O)C[C@H]1c1cccc(Oc2ccccc2)c1)S(=O)(=O)c1ccc(-c2ccc(Cl)cc2)cc1 (relative stereo) [Example 1-25, (1R*,2S*)-1-[carboxymethyl-(4′-chloro-biphenyl-4-sulfonyl)-amino]-2-(3-phenoxy-phenyl)-cyclopropanecarboxylic acid]",< 0.1 µM,≥ 10 µM
"O=C(O)CN([C@]1(C(=O)O)C[C@H]1c1ccccc1-c1ccccc1)S(=O)(=O)c1ccc(-c2ccc(Cl)cc2)cc1 (relative stereo) [Example 1-26, (1R*,2S*)-2-biphenyl-2-yl-1-[carboxymethyl-(4′-chloro-biphenyl-4-sulfonyl)-amino]-cyclopropanecarboxylic acid]",< 1 µM,≥ 10 µM
"N#Cc1cccc([C@@H]2C[C@@]2(C(=O)O)N(CC(=O)O)S(=O)(=O)c2ccc(-c3ccc(Cl)cc3)cc2)c1 (relative stereo) [Example 1-27, (1R*,2S*)-1-[carboxymethyl-(4′-chloro-biphenyl-4-sulfonyl)-amino]-2-(3-cyano-phenyl)-cyclopropanecarboxylic acid]",< 0.1 µM,≥ 10 µM
